What all share (assay type): in vivo
In one test the test system is interleukin-1β (mIL-1β). Put plainly: Mouse air pouch model (MSU crystal-induced): IL-1β content of exudate by ELISA. Conditions: Example 4, Figure 3; topical 100 mg paste/mouse (5 mg total active) 15 hours prior to MSU; exudate 5 hours after MSU. The procedure: (§1) Mouse Air pouch model: this mouse model may be referenced to the methods and the experimental details as in the published article "Role of S100A8 and S100A9 in neutrophil recruitment in response to monosodium urate monohydrate crystals in the air-pouch model of acute gouty arthritis", Arthritis Rheum 2003 Aug, 48(8):2310-20.
(§2) Before the experiment, the mice are shaved to remove back hair. At day 0 sterile filtered air (2 ml/per mouse) is injected through 0.22 µm microfilter to the back of each mouse subcutaneously, so that a pseudosynovial cavity is formed in each mouse. At day 3, an air booster (3 ml/mouse) is again given to each mouse, so that the air pouch is maintained round. Later, the mice are weighed and grouped so that the average weight of the mice in each group is about the same. At day 6 monosodium urate (MSU) crystal suspension (5 mg in 2 ml/per mouse) is injected into the air pouch. Topical application of the paste (100 mg paste/per mouse) is administrated 15 hours prior to MSU stimulation. At a specific time (5 hours) after the injection of MSU, the mice were euthanized with an excess of carbon dioxide, 2 ml PBS per mouse is injected into the air pouch, and the air pouch is carefully cut to collect the exudate. The collected exudate is subjected to the centrifugation at 1,000 rpm, 4°C for 5 minutes, and the supernatant is then placed in a 96-well plate and stored at -20°C. […]

For a further test, the system named is interleukin-6 (mIL-6). Description: Mouse air pouch model (MSU crystal-induced): IL-6 content of exudate by ELISA. Conditions: Example 4, Figure 4; topical 100 mg paste/mouse (5 mg total active) 15 hours prior to MSU; exudate 5 hours after MSU. How it is done: as §1, §2
In test [1] the test system is neutrophil cell (CD45^+/Ly6G^+ cells). Put plainly: Mouse air pouch model (MSU crystal-induced acute gouty arthritis): neutrophil cell density in exudate by flow cytometry. The settings on record: Example 4, Table 3; for INHIBITION RATE (neutrophil cell density): CD45^+/Ly6G^+ cells, vs blank control, topical 100 mg paste/mouse (5 mg total active); for AVERAGE VALUES (normalized cell density, neutrophil CD45^+/Ly6G^+ cells): topical 100 mg paste/mouse (5 mg total active) 15 hours prior to MSU, exudate 5 hours after MSU, blank control 360. How it is done: as §1
(§3) Before the experiment, the mice are shaved to remove back hair. At day 0 sterile filtered air (2 ml/per mouse) is injected through 0.22 µm microfilter to the back of each mouse subcutaneously, so that a pseudosynovial cavity is formed in each mouse. At day 3, an air booster (3 ml/mouse) is again given to each mouse, so that the air pouch is maintained round. Later, the mice are weighed and grouped so that the average weight of the mice in each group is about the same. At day 6 monosodium urate (MSU) crystal suspension (5 mg in 2 ml/per mouse) is injected into the air pouch. Topical application of the paste (100 mg paste/per mouse) is administrated 15 hours prior to MSU stimulation. At a specific time (5 hours) after the injection of MSU, the mice were euthanized with an excess of carbon dioxide, 2 ml PBS per mouse is injected into the air pouch, and the air pouch is carefully cut to collect the exudate. The collected exudate is subjected to the centrifugation at 1,000 rpm, 4°C for 5 minutes, and the supernatant is then placed in a 96-well plate and stored at -20°C. An ELISA kit (purchased from R&D Systems) is used to analyze the contents of IL-1β and IL-6 in the exudate. The precipitate is resuspended and reacted with 1 ml red blood cell lysis buffer (RBC lysis buffer) for one minute to remove the red blood cells, followed by adding 1 ml PBS to terminate the reaction, centrifuged at 1,000 rpm, 25°C for 5 minutes, and the supernatant is discarded. The precipitate is then resuspended in 1 ml PBS as the cell suspension and the cell suspension is filtered by filter membrane (BD Falcon 100 µm Nylon filter strainer) and the filtered cell suspension is dispensed into several tubes (0.25 ml/tube) for subsequent cell counting or for labelling with various differentiation antigen markers (such as cluster of differentiation (CD) markers). The flow cytometry is used for cell counting of the various cells.
(§4) In order to investigate the anti-gout efficacy of AG02-RA1 and AG04-RA1, either used alone or in combination, the experiments are performed to test AG02-RA1 alone, AG04-RA1 alone and the combination(s) of AG02-RA1 :AG04-RA1 in the ratio of 50:50 (Composition Nos. 1, 2 and 3 as shown in Table 1). The total weight of the content of AG02-RA1 and/or AG04-RA1 is 5 mg, accounting for 5 % of the total weight of the test sample paste composition. […]

Test [2] relates to leukocyte cell (CD45^+ cells). Put plainly: Mouse air pouch model (MSU crystal-induced acute gouty arthritis): leukocyte cell density in exudate by flow cytometry. The settings on record: for AVERAGE VALUES (normalized leukocyte cell density): Example 4, Table 2, topical 100 mg paste/mouse (5 mg total active) 15 hours prior to MSU, exudate 5 hours after MSU, blank control 803; for INHIBITION RATE (leukocyte cell density): Example 4, Table 2, vs blank control, topical 100 mg paste/mouse (5 mg total active) 15 hours prior to MSU, 5 hours after MSU. The procedure: as §1, §3, §4

The record followed here is patent EP3175850B1, “PHARMACEUTICAL COMPOSITION FOR ALLEVIATING OR TREATING GOUT AND USES THEREOF” (Industrial Technology Research Institute, priority 2014, dated 2016).

Regarding `CC(=O)OCC=Cc1ccc(OC(C)=O)cc1` [AG04-RA1, 4-(3-acetoxy-propenyl)-phenyl acetate], the “inhibition rate of interleukin-1β secretion” value in the test with interleukin-1β (mIL-1β) was above 50%. Further, in the test on interleukin-6 (mIL-6), the “inhibition rate of interleukin-6 secretion” value is listed as above 50%. Further, in test [1], the “INHIBITION RATE (neutrophil cell density)” value is 43% and the “AVERAGE VALUES (normalized cell density, neutrophil CD45^+/Ly6G^+ cells)” value was 205 cells*10^3/ml. Besides, in test [2], the “AVERAGE VALUES (normalized leukocyte cell density)” value was found to be 670 cells* 10^3/ml and the “INHIBITION RATE (leukocyte cell density)” value was 17%.
With “3,7,11,15(17)-cembratetraene-16,2:19,6-diolide-3484-37-5(3E,12E)-3,12-dimethyl-8-methylene-6,18-dioxa-tricyclo[14.2.1.0.5,9]nonadeca-3,12,16(19)-triene-7,17-dione [AG02-RA1]”, in test [1], the “INHIBITION RATE (neutrophil cell density)” value was 63% and the “AVERAGE VALUES (normalized cell density, neutrophil CD45^+/Ly6G^+ cells)” value is reported as 133 cells*10^3/ml. Besides, in test [2], the “AVERAGE VALUES (normalized leukocyte cell density)” value is recorded as 1609 cells* 10^3/ml and the “INHIBITION RATE (leukocyte cell density)” value is reported as -100%.
